Data on ten molecules can be found in doi:10.1101/2025.04.16.649181, “Design of peptide-based PAC1 antagonists combining molecular dynamics simulations and a biologically relevant cell-based assay” (bioRxiv, 2025).

Assay [1] has as its target T1, PAC1 (endogenous, mainly PAC1null, SH-SY5Y) (Homo sapiens, UniProt P41586).
T1 construct: Neuroblastoma SH-SY5Y cells endogenously xpressing hPAC1 and engineered to express CBS; endogenous in cells
T1 sequence (P41586 21-468): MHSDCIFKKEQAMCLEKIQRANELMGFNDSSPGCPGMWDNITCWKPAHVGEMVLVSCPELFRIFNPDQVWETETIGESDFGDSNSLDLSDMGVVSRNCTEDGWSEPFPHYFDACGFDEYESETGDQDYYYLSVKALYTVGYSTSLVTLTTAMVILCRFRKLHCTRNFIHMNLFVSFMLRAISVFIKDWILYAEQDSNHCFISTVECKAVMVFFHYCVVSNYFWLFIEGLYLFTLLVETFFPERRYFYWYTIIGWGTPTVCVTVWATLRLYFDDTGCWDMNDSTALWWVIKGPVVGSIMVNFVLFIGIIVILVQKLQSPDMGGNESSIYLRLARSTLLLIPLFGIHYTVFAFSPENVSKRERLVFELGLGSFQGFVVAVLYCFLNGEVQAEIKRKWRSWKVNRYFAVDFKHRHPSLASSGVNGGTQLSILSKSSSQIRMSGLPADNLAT
In words: CBS assay, antagonism of P38-induced cAMP in SY5Y_CBS cells. The format is cell-based. An excerpt: (§1) A single clone of the SH-SY5Y cell line stably expressing a cAMP biosensor (SY5Y_CBS) was generated as previously described for HEK293_CBS and NS-1_CBS cells, using the retroviral vector pLHCX containing the cAMP biosensor and a hygromycin resistance gene. A HEK293_CBS_hPAC1 cell clone was generated by transducing HEK293_CBS cells with the lentiviral vector pLX304 (GeneCopoeia, Rockville, MD) encoding the human PAC1hop (PAC1; GenBank accession no. BC143679) and a blasticidin resistance gene . Following transduction, cells were selected with the appropriate antibiotics (hygromycin or blasticidin) for 2 weeks. Single-cell clones were subsequently isolated by limiting dilution and assessed for PACAP-induced cAMP production using concentration-response assays.
(§2) The cyclic AMP biosensor (CBS) assay was performed using Gibco CO2-independent medium (ThermoFisher, catalog #18045-088). HEK293_CBS_hPAC1 or SY5Y_CBS cells were seeded in 96-well black/clear-bottom plates (MidSci, Fenton, MO) at a density of 6,000 cells per well and incubated overnight. The following day, the medium in each well was aspirated and replaced with fresh medium containing 1.5 mg/mL D-luciferin potassium salt substrate (Gold Biotechnology, St. Louis, MO) and 500 μM isobutyl-1-methylxanthine (IBMX), followed by incubation at 37 °C for 1 hour. Cells were then pre-treated with antagonists for 10 minutes before the addition of agonists (PACAP or forskolin). Plates were incubated at 37 °C for 1 hour, then brought to room temperature and equilibrated for 30 minutes. Luminescence was measured using a GloMax plate reader (Promega, Madison, WI).
(§3) GraphPad Prism ver. 9.0 or 10.0 (GraphPad Software Inc, Boston, MA) was used for data analysis. Concentration response curves were created using a four parameter logistic regression model. EC80 and IC50 parameters were obtained using non-linear regression curve fitting tools. EC80 was calculated as the effective concentration of the agonist required to produce 80% of the maximal response. IC50 was calculated as the concentration of the antagonist that produced 50% of the response induced by an agonist (either PACAP or forskolin) in the absence of the antagonist. Seven or eight different concentrations and three technical replicates per concentration were used for curve fitting. All data are presented as mean ± standard error of the mean (SEM).

Assay [2] concerns the target T1, PAC1 (endogenous, mainly PAC1null, SH-SY5Y). In words: Direct cAMP ELISA, antagonism of P38 in SY5Y_CBS cells. Format: cell-based. The protocol:
Direct cAMP determinations were made using the DetectX® Direct Cyclic AMP Enzyme Immunoassay Kit (Arbor Assays, Ann Arbor, MI). SY5Y_CBS cells (200,000 cells per well) or HEK293_CBS cells (10,000 cells per well) were seeded into 96-well plates one day prior to the assay. These cell densities were optimized to ensure agonist responses fell within the linear range of the cAMP standard curve (0.16-10 pmol/mL cAMP). On the day of the assay, the medium was removed and replaced with fresh medium containing 500 μM IBMX. After a 20-minute incubation at 37 °C, antagonists were added and incubated for 10 minutes at 37 °C, followed by the addition of agonists for 30 minutes at 37 °C. Following the final incubation, the medium was aspirated, and cells were lysed with 200 μL of lysis buffer (provided in the kit) for 10 minutes at room temperature. Samples were then snap-frozen and stored at −80 °C overnight and thawed the next day to ensure complete cell lysis. The assay was completed by sequentially adding the cAMP peroxidase conjugate, anti-cAMP sheep antibody, substrate, and stop solution, according to the manufacturer’s instructions. Optical density was measured at 450 nm using a microplate spectrophotometer (Molecular Devices, San Jose, CA). Standard curves and data analysis were performed using GraphPad Prism with a sigmoidal four-parameter nonlinear regression model. Experiments conducted on different days with independently plated and assayed cells were considered biological replicates. Each experiment included three technical replicates.
as §3

For assay [3] the target is unchanged. In words: CBS assay, antagonism of P27-induced cAMP in SY5Y_CBS cells. Format: cell-based.
Source text: as §1, §2
For the high-throughput CBS screening assays, cells were plated at 2,000 (HEK293_CBS_hPAC1) or 3,000 (SY5Y_CBS) cells per well in […] of Gibco CO2-independent medium, in white 1,536-well tissue culture treated plates. After overnight incubation at 37 °C and 5% CO2, […] of luciferin/IBMX solution was added to the wells (final concentrations of 500 μM each) and plates were incubated at 37 °C for 1 hour. SMOLs (22.5 nL) were transferred to the assay plate, using a pintool device (HEK293 screen) or an ECHO acoustic liquid handler (Beckman Coulter, Brea, CA, SY5Y screen), to final concentrations (4 concentrations per compound) between 0.5 and 30 μM and cells were incubated at 37 °C for 1 hour (HEK293 screen) or 10 minutes (SY5Y screen). […] For forskolin counterscreening in SY5Y cells, forskolin instead of peptide was dispensed to the plate at a final concentration of 5 μM.
as §3

The next assay relates to human PAC1hop (hPAC1). In words: cAMP biosensor (CBS) assay, agonist responses in HEK293_CBS_hPAC1. The settings on record: HEK293_CBS_hPAC1, IBMX pretreated, luminescence. Format: cell-based.
Source text: as §1, §2
GraphPad Prism ver. 9.0 or 10.0 (GraphPad Software Inc, Boston, MA) was used for data analysis. Concentration response curves were created using a four parameter logistic regression model. EC80 and IC50 parameters were obtained using non-linear regression curve fitting tools. EC80 was calculated as the effective concentration of the agonist required to produce 80% of the maximal response. […]

Assay [4] addresses PAC1 endogenously expressed in SH-SY5Y cells (human (endogenous in SH-SY5Y)) (UniProt P41586).
Assay [5] shares this target. The source holds these as a separate data set.
For assay [6], the target named is T1, PAC1 (endogenous, mainly PAC1null, SH-SY5Y). In words: CBS assay, agonist potency in SY5Y_CBS cells. Format: cell-based.
Source text: A single clone of the SH-SY5Y cell line stably expressing a cAMP biosensor (SY5Y_CBS) was generated as previously described for HEK293_CBS and NS-1_CBS cells [30], using the retroviral vector pLHCX containing the cAMP biosensor and a hygromycin resistance gene. […] Following transduction, cells were selected with the appropriate antibiotics (hygromycin or blasticidin) for 2 weeks. Single-cell clones were subsequently isolated by limiting dilution and assessed for PACAP-induced cAMP production using concentration-response assays.
The next assay has as its system HEK293_CBS cells. Kind of assay: cAMP biosensor (CBS) assay, agonist responses in parental HEK293_CBS. Format: cell-based.
Where [7] appears, read: 0.2 nM P38 (EC80), SY5Y_CBS, mean ± SEM, three independent experiments, Figure 11B, read-out: IC50 of P6-38 C-terminal mutants in CBS assay.
Where [8] appears, read: 1 nM P38, average of two independent experiments, read-out: IC50 Average in ELISA assay.
The mark [9] stands for this setting: 1 nM P38, range of two independent experiments, read-out: IC50 Range in ELISA assay.

No end group written: not given here.

The IC50 is the concentration that gives 50% inhibition. For `CSCC[C@H](NC(=O)[C@H](CCC(N)=O)NC(=O)[C@H](CCCCN)NC(=O)[C@H](CCCNC(=N)N)NC(=O)[C@H](Cc1ccc(O)cc1)NC(=O)[C@H](CCCNC(=N)N)NC(=O)[C@H](CO)NC(=O)[C@H](Cc1ccc(O)cc1)NC(=O)[C@H](CO)NC(=O)[C@H](CC(=O)O)NC(=O)[C@@H](NC(=O)[C@@H](N)Cc1ccccc1)[C@@H](C)O)C(=O)N[C@@H](C)C(=O)N[C@H](C(=O)N[C@@H](CCCCN)C(=O)N[C@@H](CCCCN)C(=O)N[C@@H](Cc1ccc(O)cc1)C(=O)N[C@@H](CC(C)C)C(=O)N[C@@H](C)C(=O)N[C@@H](C)C(=O)N[C@H](C(=O)N[C@@H](CC(C)C)C(=O)NCC(=O)N[C@@H](CCCCN)C(=O)N[C@@H](CCCNC(=N)N)C(=O)N[C@@H](Cc1ccc(O)cc1)C(=O)N[C@@H](CCCCN)C(=O)N[C@@H](CCC(N)=O)C(=O)N[C@@H](CCCNC(=N)N)C(=O)N[C@H](C(=O)N[C@@H](CCCCN)C(=O)N[C@@H](CC(N)=O)C(=O)N[C@@H](CCCCN)C(N)=O)C(C)C)C(C)C)C(C)C` [P6-38, reference compound], the IC50 in assay [1] (setting [7]) is 117 ± 19 nM; in assay [1] (IC50 against P38 (Figure 9C), 0.2 nM P38, CBS assay, mean ± SEM, three independent experiments), 52 ± 13 nM; in assay [1] (IC50 against P38 (estimated from Figure 5B), 0.2 nM P38 (EC80), SY5Y_CBS, CBS assay), ~100 nM; in assay [2] (setting [8]), 114 nM; in assay [2] (setting [9]), 86 to 142 nM; in assay [3] (IC50 against P27 (estimated from Figure 5B), 0.2 nM P27 (EC80), SY5Y_CBS), ~20 nM.

Take FTDSYSRYRKQMAVKKYLAAVL-NH2 [P6-27]: the IC50 in assay [1] (0.2 nM P38 (EC80), SY5Y_CBS, three independent experiments, Figure 11B, read-out: IC50 of P6-38 C-terminal mutants in CBS assay) was > 1000 nM; in assay [2] (setting [8]), 3310 nM; in assay [2] (setting [9]), 370 to 6250 nM; in assay [3] (IC50 against P27 (Figure 8), 0.2 nM P27, SY5Y_CBS, 3 independent experiments) it was ~100 nM; in assay [3] (IC50 against P27, 0.2 nM P27 (EC80), mean ± SEM, n = 3, Figure 7C), 200 ± 55 nM.

As to FTDSYSRYRKQMAVKKYLAAVLGK-NH2 [P6-29], the half-maximal inhibitory concentration (IC50) is > 500 nM in assay [1] (setting [7]), 1250 nM in assay [2] (setting [8]) and 350 to 2150 nM in assay [2] (setting [9]).

In the case of FTDSYSRYRKQMAVKKYLAAVLGKR-NH2 [P6-30], the IC50 is 84 ± 26 nM in assay [1] (setting [7]), 175 nM in assay [2] (setting [8]) and 52 to 297 nM in assay [2] (setting [9]).

As for “P27: PACAP 1-27, endogenous PAC1 agonist (HSDGIFTDSYSRYRKQMAVKKYLAAVL; ends and bridges not checked)”, the “agonist response (cAMP)” value in the assay with human PAC1hop (hPAC1) was “highly responsive to P38 and P27 with similar potency and efficacy”.

Regarding PACAP(6-27) (peptide), in assay [4], the IC50 of inhibition of P27-stimulated (0.2 nM) cAMP elevation (CBS assay) in SY5Y CBS cells; pair that is blocked: m2 + m18 was 100 nM and the percent to which P38-induced (0.2 nM) cAMP elevation is blocked (CBS assay) in SY5Y CBS cells, antagonist up to 10 μM; pair that is blocked: m1 + m18 is 50%.

On to PACAP(6-38) (peptide), for which, in assay [5], the IC50 of inhibition of P27-induced cAMP elevation (CBS assay) in SY5Y CBS cells; pair that is blocked: m2 + m18 was determined as 20 nM and the IC50 of inhibition of P38-induced cAMP elevation (CBS assay) in SY5Y CBS cells; pair that is blocked: m1 + m18 turned out to be 100 nM.

In turn, “pituitary adenylate cyclase-activating polypeptide (PACAP) 1-27 (from UniProt P18509 132-158)” registered an EC80 of cAMP elevation (CBS assay) in SY5Y CBS cells in assay [5] of 0.2 nM.

Broadly, the EC80 is the concentration needed for an effect of 80%. Higher therefore signals weaker potency. For vasoactive intestinal peptide [VIP], in assay [6], the “agonist response / relative agonist potency” value is “VIP is a less potent agonist”; the “potency relative to P27 and P38 (times less potent)” value is listed as “about 100 times”. The “EC80 (approximate)” value in assay [6] (Figure 5A) is listed as ~ 20 nM. In assay [6] (mean ± SEM, n = 3), the EC80 is reported as 20 ± 6.2 nM and the “Hill Slope” value worked out at 1.78 ± 0.35. Moreover, the “agonist response (cAMP)” value with human PAC1hop (hPAC1) was “highly specific for activation by PACAP, compared to the related peptide VIP”. Besides, the “relative potency of PACAP and VIP” value in the assay with HEK293_CBS cells is “the potency of PACAP was similar to VIP”. In the assay on HEK293_CBS cells (IBMX pretreated, luminescence), the “response relative to HEK293_CBS_hPAC1 level” value is reported as “less than 5%”.

B1: vasoactive intestinal peptide (peptide)
peptide: HSDAVFTDNYTRLRKQMAVKKYLNSILN
B1 showed an EC80 of cAMP elevation (CBS assay) in SY5Y CBS cells in assay [5] of 20 nM.
